The results in this text go back to ChEMBL document CHEMBL3232841, “New aminobenzenesulfonamide-thiourea conjugates: synthesis and carbonic anhydrase inhibition and docking studies” (Eur J Med Chem, 2014).

The target of this assay is Carbonic anhydrase 2 (Bos taurus, UniProt P00921). The assay is described as follows: Inhibition of bovine erythrocyte carbonic anhydrase 2 using p-nitrophenyl acetate as substrate preincubated for 10 mins before substrate addition measured after 30 mins by spectrophotometric analysis.

Molecules are shown by their SMILES.

Sequence of Carbonic anhydrase 2 (P00921 whole entry): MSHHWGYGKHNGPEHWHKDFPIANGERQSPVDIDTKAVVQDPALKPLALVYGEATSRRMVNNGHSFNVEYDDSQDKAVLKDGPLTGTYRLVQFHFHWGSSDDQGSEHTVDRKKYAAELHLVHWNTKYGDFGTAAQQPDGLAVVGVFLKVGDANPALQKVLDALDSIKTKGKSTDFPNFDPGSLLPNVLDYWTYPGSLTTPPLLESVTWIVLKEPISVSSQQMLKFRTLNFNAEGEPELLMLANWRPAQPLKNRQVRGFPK

Usually IC50 stands for the concentration at which inhibition is half-maximal. A low value points to greater potency in that assay. In the case of `NS(=O)(=O)c1cccc(NC(=S)NC(=O)c2cccc([N+](=O)[O-])c2)c1`, half-maximal inhibition (IC50) was put at 0.49 µM.
Turning to `NS(=O)(=O)c1ccc(NC(=S)NC(=O)c2cccs2)cc1`, 0.011 µM corresponded to half-maximal inhibition (IC50).
As for `NS(=O)(=O)c1cccc(NC(=S)NC(=O)C23CC4CC(CC(C4)C2)C3)c1`, the IC50 turned out to be 5.58 µM.
As for `NS(=O)(=O)c1cccc(NC(=S)NC(=O)c2ccccc2Cl)c1`, the IC50 stood at 13.5 µM.
The same measure for `NS(=O)(=O)c1cccc(NC(=S)NC(=O)c2cccc(Cl)c2)c1`: 0.22 µM; for `NS(=O)(=O)c1cccc(NC(=S)NC(=O)c2ccc(Cl)cc2)c1`: 5.64 µM; for `NS(=O)(=O)c1cccc(NC(=S)NC(=O)c2ccc(Cl)cc2Cl)c1`: 17.1 µM.
`NS(=O)(=O)c1cccc(NC(=S)NC(=O)c2cc([N+](=O)[O-])cc([N+](=O)[O-])c2)c1` yielded an IC50 of 14.2 µM.
For `NS(=O)(=O)c1cccc(NC(=S)NC(=O)c2ccco2)c1` the value was 9.76 µM; for `NS(=O)(=O)c1cccc(NC(=S)NC(=O)c2cccs2)c1`, 0.052 µM; for `CC(C)(C)C(=O)NC(=S)Nc1cccc(S(N)(=O)=O)c1`, 1.28 µM.
`NS(=O)(=O)c1cccc(NC(=S)NC(=O)c2cc3ccccc3oc2=O)c1` registered an IC50 of 13.4 µM.
`NS(=O)(=O)c1ccc(NC(=S)NC(=O)c2cc3ccccc3oc2=O)cc1` gave a half-maximal inhibitory concentration (IC50) of 11.3 µM.
